# Assay results reported in patent US20040253278A1, “Breath Freshening and Oral Cleansing Product Using Carvacrol” (priority 2002, published 2004).
# Assays:
# Assay type in all cases: cell-based
# [1] = tested on: both bacteria; assay: MIC of positive control, bacteria not named; details: "for both bacteria"
# Description: (§1) In vitro tests were conducted with a gram positive supragingival plaque bacterium, Streptococcus mutans. In addition, two subgingival plaque bacteria associated with oral malodor were tested, Porphyromonas gingivalis and Fusobacterium nucleatum. The MIC (Minimum Inhibitory Concentrations) study protocol is as follows. Chlorhexidine was used as a positive control and sterile water was used as a negative control. Carvacrol was suspended in 10% methanol with 3.8% Tween 80. […] 96 well microtiter plates were used for this study. Each well contained 5×10^5 colony forming units/ml of bacteria, serially diluted agents and bacterial growth medium. All bacterial cultures were incubated at 37° C. and stationary. Bacterial growth was estimated spectrophotometrically at 660 nm, after 48 hours. The MIC for each test bacteria was defined as the minimum concentration of test compound limiting turbidity to […].
# [2] = tested on: both bacteria; assay: MBC of positive control, bacteria not named
# Description: (§2) The MBC (Minimum bactericidal concentrations) were determined using the 96 well microtiter plate serial dilutions as described above for MIC studies. Serial dilution of cultures in wells showing no visible growth were performed and 10 microliters of culture were plated in triplicate on blood agar plates. Viable colonies were scored after incubation of the plates for 48 hours at 37° C. For each test bacterium, the number of CFU/ml were determined in the initial inoculum. The MBC was defined as the lowest concentration of a test compound that killed at least 99.9% of the cells present in the initial inoculum.
# [3] = tested on: Fusobacterium nucleatum; assay: MIC (minimum inhibitory concentration), 96 well microtiter serial dilution; details: 48 h
# Description: as §1
# [4] = tested on: Streptococcus mutans; assay: as above; details: 48 h
# Description: as §1
# [5] = tested on: Porphyromonas gingivalis; assay: as above; details: 48 h
# Description: as §1
# [6] = tested on: Fusobacterium nucleatum; assay: MBC (minimum bactericidal concentration), plating on blood agar; details: 48 h
# Description: as §2
# [7] = tested on: Streptococcus mutans; assay: as above; details: 48 h
# Description: as §2
# [8] = tested on: Porphyromonas gingivalis; assay: as above; details: 48 h
# Description: as §2
Compound,MIC [1] [mg/L],MBC [2] [mg/L],MIC [3] [mg/L],MIC [4] [mg/L],MIC [5] [mg/L],MBC [6] [mg/L],MBC [7] [mg/L],MBC [8] [mg/L]
"[H]/N=C(\N/C(=N/[H])NCCCCCCNC(=N)NC(=N)Nc1ccc(Cl)cc1)Nc1ccc(Cl)cc1 [Cholorhexidine, Chlorhexidine]",1.25,1.25,,,,,,
Cc1ccc(C(C)C)cc1O [carvacrol],,,125,250,125,125,125,125
